Experimental data from patent US20120225119A1, “THERAPEUTIC COMBINATION FOR PAINFUL MEDICAL CONDITIONS” (UCB Pharma GmbH, priority 2005, published 2012).
“Also recorded” adds a separate entry of the source.

What was measured:
[1] = tested on: muscle pressure hyperalgesia induced by TNF; assay: Withdrawal threshold to muscle pressure (Randall-Selitto) after TNF injection into gastrocnemius muscle; type: in vivo, rat; details: for full reversal of the muscle hyperalgesia: pregabalin 30 and 100 mg/kg
Experimental: (§1) Adult male Sprague Dawley rats with a body weight of 250 g to 300 g were used (supplier: Charles River, Sulzfeld, Germany). Animals were group-housed (3 animals per cage) and maintained in a room with controlled temperature (21-22° C.) and a reversed light-dark cycle (12 h/12 h) with food and water available ad libitum. All experiments were approved by the Bavarian State animal experimentation committee and carried out in accordance with its regulations.
(§2) Recombinant rat tumor necrosis factor alpha (herein referred to as TNF) was obtained from R&D Systems, Minneapolis, Minn., U.S.A. TNF was diluted in 0.9% NaCl and used in a concentration of 1 μg in 50 μl. Injections were performed in short halothane narcosis with a 30 g needle bilaterally into the gastrocnemius or into the biceps brachii muscle. All rats were used to the behavioral tests before injections and baseline values were recorded over three test days.
Mechanical withdrawal thresholds to muscle pressure were measured with an analgesimeter (Ugo Basile, Comerio, Italy). The rat was allowed to crawl into a sock which helps the rat to relax. The hind limbs were positioned such that an increasing pressure could be applied onto the gastrocnemius muscle (maximum 250 g). The pressure needed to elicit withdrawal was recorded. Means of 3 trials for each hind limb were calculated (interstimulus interval of >30 sec). Only animals with a significant TNF effect were included for further analysis.
Rats were injected with TNF into the gastrocnemius muscle at 2 pm. Eighteen hours later, rats were tested for pressure hyperalgesia pre- and post-administration of the test drug. Rats were tested for pressure hyperalgesia 30 to 60 minutes after drug administration.
(§3) The rats, initially 10 per group, were treated with either 3, 10 or 30 mg/kg lacosamide, 2 mg/kg metamizol, 30 or 100 mg/kg pregabalin, 100 mg/kg gabapentin, or the NaCl vehicle, i.p. (intraperitoneally). Volume of i.p. injections was 0.5 ml. A pilot study was performed to confirm that i.m. (intramuscular) injection of 1 μg TNF into the gastrocnemius muscle was sufficient to induce pressure hyperalgesia.
(§4) Data are shown in graphs displaying means and standard errors of the means (SEM). Pre- and post-treatment data were compared using ANOVA (analysis of variance) and a Tukey post hoc test. Means of treatment groups were compared using a one-way ANOVA and Dunnett's post hoc test. Maximal possible effects (MPE) were calculated for all types of treatment.

[2] = tested on: TNF-induced reduction of grip strength; assay: Biceps muscle grip strength after TNF-induced muscle pain; type: in vivo, rat
Experimental: as §1, §2
Grip strength of the forelimbs was tested with a digital grip force meter (DFIS series, Chatillon, Greensboro, N.C., U.S.A.). The rat was positioned to grab the grid with the forelimbs and was gently pulled so that the grip strength could be recorded. Means of three trials were calculated. The effect of the TNF treatment was calculated for each animal separately and only animals with a significant TNF effect were included for further analysis.
Rats were injected with TNF into the biceps brachii muscle at 8 am. Six hours later, grip strength of the forelimbs was tested with a digital grip force meter. Test drug was administered, and grip strength was again tested after 30 to 60 minutes.
as §3, §4

[3] = tested on: monosodium iodoacetate-induced tactile allodynia; assay: Tactile allodynia (von Frey filaments) in iodoacetate rat model of osteoarthritis; type: in vivo; details: day 3 and day 7
[4] = tested on: monosodium iodoacetate-induced mechanical hyperalgesia; assay: Mechanical hyperalgesia (Randall-Selitto paw pressure) in iodoacetate rat model of osteoarthritis; type: in vivo; details: for paw pressure withdrawal threshold compared to iodoacetate/vehicle treated animals: day 3
[5] = tested on: formalin-induced flinching and licking of the affected paw; assay: Rat formalin paw test (late phase); type: in vivo; details: for effect on time spent licking: lacosamide 10 mg/kg i.p.
Experimental: Rats were given an intraplantar injection of 5% formalin (50 μl) into the posterior left paw. This treatment induces a recognizable flinching and licking response of the affected paw in control animals. The number of flinches was counted for 15 minutes, beginning 20 minutes after injection of formalin. The time spent licking the affected paw was also recorded.
Male Rj: Wistar (Han) rats, 10 per group, weighing 100-130 g at the beginning of the experiments were studied per group. The test was performed blind. […]
Lacosamide (10 and 20 mg/kg), memantine (4 and 8 mg/kg), combinations of lacosamide (10 and 20 mg/kg) with memantine (4 and 8 mg/kg), and vehicle were administered i.p. 10 minutes before injection of formalin.
Lacosamide (10 and 20 mg/kg), naproxen (8 and 16 mg/kg), combinations of lacosamide (10 and 20 mg/kg) with […] (8 and 16 mg/kg), and vehicle were administered i.p. 10 minutes before injection of formalin. Morphine (8 mg/kg) was included as a comparative treatment.

[6] = lacosamide 10 and 30 mg/kg i.p.
[7] = pregabalin 30 and 100 mg/kg i.p.

NCC1(CC(=O)O)CCCCC1 [Gabapentin]
MPE (maximal possible effect) on muscle pressure hyperalgesia, FIG. 2 ([1]; gabapentin 100 mg/kg i.p.): significantly different from vehicle
reversal of muscular mechanical hyperalgesia (withdrawal threshold to muscle pressure) ([1]; gabapentin 100 mg/kg i.p.): significant reversal
full reversal of the muscle hyperalgesia ([1]; gabapentin 100 mg/kg i.p.): Neither pregabalin nor gabapentin led to a full reversal
MPE (maximal possible effect) on biceps muscle grip strength, FIG. 4 ([2]; 100 mg/kg i.p.): significantly different from vehicle
reversal of TNF-induced reduction of grip strength ([2]; 100 mg/kg i.p.): significant reversal; also recorded: improved grip strength

COC[C@@H](NC(C)=O)C(=O)NCc1ccccc1 [Lacosamide, (R)-2-acetamido-N-benzyl-3-methoxypropionamide]
reversal of muscular mechanical hyperalgesia (withdrawal threshold to muscle pressure) ([1]; lacosamide 30 mg/kg i.p., 30 to 60 minutes after drug): complete reversal; also recorded: full reversal
muscle hyperalgesia induced by TNF injection in the paw pressure test ([1]; lacosamide 3, 10 and 30 mg/kg i.p.): dose-dependently improved
MPE (maximal possible effect) on muscle pressure hyperalgesia, FIG. 2 [1, 6]: significantly different from vehicle
grip strength test indicative of mechanical allodynia ([2]; lacosamide 10 mg/kg i.p.): reversed the effect of TNF
MPE (maximal possible effect) on biceps muscle grip strength, FIG. 4 [2, 6]: significantly different from vehicle
reversal of TNF-induced reduction of grip strength [2, 6]: significant reversal
tactile allodynia of iodoacetate-treated rats ([3]; lacosamide 30 mg/kg p.o.): improved
paw pressure withdrawal threshold compared to iodoacetate/vehicle treated animals ([4]; lacosamide 3 mg/kg p.o.): increase in paw pressure withdrawal threshold
mechanical hyperalgesia ([4]; lacosamide 10 mg/kg p.o., day 14): did not show a statistically significant effect
mechanical hyperalgesia ([4]; lacosamide at all doses tested (3, 10 and 30 mg/kg p.o.), day 7): reduced mechanical hyperalgesia
mechanical hyperalgesia during the post-inflammatory period ([4]; lacosamide p.o.): inhibited mechanical hyperalgesia
effect on time spent licking ([5]; Example 6): no clear effects
effect on time spent licking ([5]; Example 7): no clear effects
effect on number of flinches as compared with vehicle controls ([5]; Example 7, lacosamide 10 and 20 mg/kg i.p.): did not clearly affect

CC12CC3CC(C)(C1)CC(N)(C3)C2 [Memantine]
effect on number of flinches as compared with vehicle controls ([5]; Example 6, memantine 4 and 8 mg/kg i.p.): did not clearly affect

CN1CC[C@]23c4c5ccc(O)c4O[C@H]2[C@@H](O)C=C[C@H]3[C@H]1C5 [Morphine]
tactile allodynia of iodoacetate-treated rats ([3]; morphine 3 mg/kg s.c.): improved
paw pressure withdrawal threshold compared to iodoacetate/vehicle treated animals ([4]; morphine 3 mg/kg s.c.): increase in paw pressure withdrawal threshold
mechanical hyperalgesia ([4]; morphine 3 mg/kg s.c., day 7): reduced mechanical hyperalgesia
effect on number of flinches and time spent licking as compared with vehicle controls ([5]; Example 4, morphine 2 and 4 mg/kg i.p., effects did not reach statistical significance): dose-dependently decreased
effect on flinching and time spent licking as compared with vehicle controls ([5]; Example 7, morphine 8 mg/kg i.p.): eliminated flinching and the time spent licking

COc1ccc2cc([C@H](C)C(=O)O)ccc2c1 [Naproxen]
effect on number of flinches or time spent licking as compared with vehicle controls ([5]; Example 7, naproxen 8 and 16 mg/kg i.p.): did not clearly affect

O=C(O)Cc1ccccc1Nc1c(Cl)cccc1Cl [diclofenac]
paw pressure withdrawal threshold compared to iodoacetate/vehicle treated animals ([4]; diclofenac 30 mg/kg s.c.): increase in paw pressure withdrawal threshold
mechanical hyperalgesia ([4]; diclofenac 30 mg/kg s.c., day 7): reduced mechanical hyperalgesia

Cc1c(N(C)CS(=O)(=O)[O-])c(=O)n(-c2ccccc2)n1C.[Na+] [metamizol]
MPE (maximal possible effect) on muscle pressure hyperalgesia, FIG. 2 ([1]; metamizol 2 mg/kg i.p.): significantly different from vehicle
reversal of muscular mechanical hyperalgesia (withdrawal threshold to muscle pressure) ([1]; metamizol 2 mg/kg i.p.): complete reversal
MPE (maximal possible effect) on biceps muscle grip strength, FIG. 4 ([2]; metamizol 2 mg/kg i.p.): significantly different from vehicle
reversal of TNF-induced reduction of grip strength ([2]; metamizol 2 mg/kg i.p.): significant reversal

CC(C)C[C@H](CN)CC(=O)O [pregabalin]
MPE (maximal possible effect) on muscle pressure hyperalgesia, FIG. 2 [1, 7]: significantly different from vehicle
reversal of muscular mechanical hyperalgesia (withdrawal threshold to muscle pressure) [1, 7]: significant reversal
full reversal of the muscle hyperalgesia ([1]; gabapentin 100 mg/kg i.p.): Neither pregabalin nor gabapentin led to a full reversal
MPE (maximal possible effect) on biceps muscle grip strength, FIG. 4 ([2]; 100 mg/kg i.p.): significantly different from vehicle
reversal of TNF-induced reduction of grip strength ([2]; 100 mg/kg i.p.): significant reversal; also recorded: improved grip strength
